# From ChEMBL document CHEMBL4507304, “Data for DCP probe TP-021” (2021)
# Tests used:
# [1] = target: Fibroblast growth factor receptor 2 (Homo sapiens) (UniProt P21802); conditions: Compound concentration 1000.0 nM
# [2] = target: Serine/threonine-protein kinase pim-1 (Homo sapiens) (UniProt P11309); conditions: Compound concentration 1000.0 nM
# [3] = target: Ephrin type-A receptor 8 (Homo sapiens) (UniProt P29322); conditions: Compound concentration 1000.0 nM
# [4] = target: Proto-oncogene tyrosine-protein kinase ROS (Homo sapiens) (UniProt P08922); conditions: Compound concentration 1000.0 nM
# [5] = target: Homeodomain-interacting protein kinase 3 (Homo sapiens) (UniProt Q9H422); conditions: Compound concentration 1000.0 nM
# [6] = target: Misshapen-like kinase 1 (Homo sapiens) (UniProt Q8N4C8); conditions: Compound concentration 1000.0 nM
# [7] = target: SNF-related serine/threonine-protein kinase (Homo sapiens) (UniProt Q9NRH2); conditions: Compound concentration 1000.0 nM
# [8] = target: Histamine H2 receptor (Homo sapiens) (UniProt P25021); conditions: Compound concentration 10.0 uM
# [9] = target: Ephrin type-B receptor 2 (Homo sapiens) (UniProt P29323); conditions: Compound concentration 1000.0 nM
# [10] = target: MAP kinase-activated protein kinase 5 (Homo sapiens) (UniProt Q8IW41); conditions: Compound concentration 1000.0 nM
# Sequence of MAP kinase-activated protein kinase 5 (Homo sapiens) (Q8IW41 whole entry): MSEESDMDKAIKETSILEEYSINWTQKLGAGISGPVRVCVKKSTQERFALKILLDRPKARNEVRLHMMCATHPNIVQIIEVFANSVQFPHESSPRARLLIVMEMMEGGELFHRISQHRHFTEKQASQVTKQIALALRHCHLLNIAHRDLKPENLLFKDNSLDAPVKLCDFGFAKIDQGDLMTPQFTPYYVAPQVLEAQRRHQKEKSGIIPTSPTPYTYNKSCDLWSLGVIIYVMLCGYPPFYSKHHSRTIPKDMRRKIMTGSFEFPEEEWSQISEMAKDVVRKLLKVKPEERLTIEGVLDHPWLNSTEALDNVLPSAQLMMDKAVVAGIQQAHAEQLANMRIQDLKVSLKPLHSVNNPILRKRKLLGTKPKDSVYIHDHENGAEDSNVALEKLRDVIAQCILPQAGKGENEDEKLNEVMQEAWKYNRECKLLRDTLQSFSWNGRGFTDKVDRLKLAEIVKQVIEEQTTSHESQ
# [11] = target: Serine/threonine-protein kinase Nek11 (Homo sapiens) (UniProt Q8NG66); conditions: Compound concentration 1000.0 nM
# Sequence of Serine/threonine-protein kinase Nek11 (Homo sapiens) (Q8NG66 whole entry): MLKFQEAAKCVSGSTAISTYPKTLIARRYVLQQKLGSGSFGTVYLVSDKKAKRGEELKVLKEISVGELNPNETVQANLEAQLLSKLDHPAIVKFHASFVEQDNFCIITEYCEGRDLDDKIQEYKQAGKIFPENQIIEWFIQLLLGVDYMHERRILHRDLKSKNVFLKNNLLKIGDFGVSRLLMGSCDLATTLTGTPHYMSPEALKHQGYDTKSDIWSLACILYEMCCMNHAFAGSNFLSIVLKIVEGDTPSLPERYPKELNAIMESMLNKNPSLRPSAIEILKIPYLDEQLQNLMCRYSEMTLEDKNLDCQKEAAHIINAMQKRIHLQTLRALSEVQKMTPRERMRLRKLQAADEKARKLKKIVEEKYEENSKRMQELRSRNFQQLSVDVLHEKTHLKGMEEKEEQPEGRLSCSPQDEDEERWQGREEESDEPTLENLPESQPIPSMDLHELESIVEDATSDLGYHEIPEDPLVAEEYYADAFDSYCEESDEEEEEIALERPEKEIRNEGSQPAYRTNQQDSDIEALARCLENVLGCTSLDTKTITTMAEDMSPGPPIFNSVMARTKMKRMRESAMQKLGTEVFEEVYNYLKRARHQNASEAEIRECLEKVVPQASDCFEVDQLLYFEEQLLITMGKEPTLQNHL
# [12] = target: Serine/threonine-protein kinase Sgk3 (Homo sapiens) (UniProt Q96BR1); conditions: Compound concentration 1000.0 nM
# [13] = target: Dual specificity testis-specific protein kinase 1 (Homo sapiens) (UniProt Q15569); conditions: Compound concentration 1000.0 nM
# [14] = target: Myosin-IIIa (Homo sapiens) (UniProt Q8NEV4); conditions: Compound concentration 1000.0 nM
# [15] = target: Mitogen-activated protein kinase kinase kinase 14 (Homo sapiens) (UniProt Q99558); conditions: Compound concentration 1000.0 nM
# [16] = tested on: Epidermal growth factor receptor (Homo sapiens), P00533 [G719C]; conditions: Compound concentration 1000.0 nM
# [17] = target: Ribosomal protein S6 kinase alpha-3 (Homo sapiens) (UniProt P51812); conditions: Compound concentration 1000.0 nM
# [18] = tested on: Receptor-type tyrosine-protein kinase FLT3 (Homo sapiens), P36888 [UNDEFINED MUTATION]; conditions: Compound concentration 1000.0 nM
# [19] = target: Myosin light chain kinase family member 4 (Homo sapiens) (UniProt Q86YV6); conditions: Compound concentration 1000.0 nM
# Sequence of Myosin light chain kinase family member 4 (Homo sapiens) (Q86YV6 whole entry): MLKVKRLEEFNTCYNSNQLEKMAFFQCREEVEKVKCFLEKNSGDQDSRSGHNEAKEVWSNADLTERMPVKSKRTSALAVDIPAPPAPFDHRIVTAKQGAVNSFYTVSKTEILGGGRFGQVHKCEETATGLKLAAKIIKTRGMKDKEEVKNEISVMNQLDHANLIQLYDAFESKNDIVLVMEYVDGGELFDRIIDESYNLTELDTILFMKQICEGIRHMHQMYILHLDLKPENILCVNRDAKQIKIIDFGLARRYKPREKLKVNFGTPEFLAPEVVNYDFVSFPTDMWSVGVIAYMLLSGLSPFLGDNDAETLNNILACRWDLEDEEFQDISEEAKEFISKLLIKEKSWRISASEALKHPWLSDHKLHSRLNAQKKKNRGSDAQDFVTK
# [20] = target: Serine/threonine-protein kinase WNK4 (Homo sapiens) (UniProt Q96J92); conditions: Compound concentration 1000.0 nM
# [21] = target: Histamine H4 receptor (Homo sapiens) (UniProt Q9H3N8); conditions: Compound concentration 10.0 uM
# [22] = target: Mitogen-activated protein kinase kinase kinase 19 (Homo sapiens) (UniProt Q56UN5); conditions: Compound concentration 1000.0 nM
# Sequence of Mitogen-activated protein kinase kinase kinase 19 (Homo sapiens) (Q56UN5 whole entry): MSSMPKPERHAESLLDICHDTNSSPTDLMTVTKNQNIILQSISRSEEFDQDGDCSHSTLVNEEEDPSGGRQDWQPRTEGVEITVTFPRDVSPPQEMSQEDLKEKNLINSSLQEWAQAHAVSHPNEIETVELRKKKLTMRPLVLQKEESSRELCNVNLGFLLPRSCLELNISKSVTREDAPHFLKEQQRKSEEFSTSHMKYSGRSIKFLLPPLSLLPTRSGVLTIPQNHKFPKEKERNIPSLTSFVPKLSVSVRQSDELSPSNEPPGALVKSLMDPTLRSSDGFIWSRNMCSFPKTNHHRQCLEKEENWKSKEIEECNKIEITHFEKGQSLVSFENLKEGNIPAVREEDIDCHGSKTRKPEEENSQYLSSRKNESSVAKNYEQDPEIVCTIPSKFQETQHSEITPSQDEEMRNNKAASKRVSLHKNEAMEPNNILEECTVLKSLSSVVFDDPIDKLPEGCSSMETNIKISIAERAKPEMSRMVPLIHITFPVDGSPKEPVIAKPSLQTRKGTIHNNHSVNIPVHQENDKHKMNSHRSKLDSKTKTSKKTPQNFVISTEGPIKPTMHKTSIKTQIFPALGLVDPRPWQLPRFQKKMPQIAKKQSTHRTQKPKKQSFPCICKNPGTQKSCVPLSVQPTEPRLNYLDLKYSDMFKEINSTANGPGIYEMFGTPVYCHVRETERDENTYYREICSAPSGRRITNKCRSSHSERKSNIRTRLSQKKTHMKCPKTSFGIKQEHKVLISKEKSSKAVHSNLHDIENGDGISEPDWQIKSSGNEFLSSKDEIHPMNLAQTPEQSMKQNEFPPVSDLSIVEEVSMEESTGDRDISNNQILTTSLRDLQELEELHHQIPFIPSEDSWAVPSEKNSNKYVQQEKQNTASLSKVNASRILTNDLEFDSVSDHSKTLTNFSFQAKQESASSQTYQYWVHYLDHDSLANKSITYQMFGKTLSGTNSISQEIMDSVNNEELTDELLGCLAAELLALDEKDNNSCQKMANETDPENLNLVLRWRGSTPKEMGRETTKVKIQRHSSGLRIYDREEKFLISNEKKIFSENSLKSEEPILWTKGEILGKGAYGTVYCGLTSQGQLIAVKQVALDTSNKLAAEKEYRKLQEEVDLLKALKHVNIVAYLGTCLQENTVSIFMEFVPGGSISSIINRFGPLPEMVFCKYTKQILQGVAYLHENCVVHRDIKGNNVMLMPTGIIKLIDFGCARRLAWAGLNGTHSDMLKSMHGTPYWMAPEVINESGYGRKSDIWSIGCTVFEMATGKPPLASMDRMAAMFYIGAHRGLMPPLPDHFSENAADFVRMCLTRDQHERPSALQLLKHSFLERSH
# [23] = target: AP2-associated protein kinase 1 (Homo sapiens) (UniProt Q2M2I8); conditions: Compound concentration 1000.0 nM
# Sequence of AP2-associated protein kinase 1 (Homo sapiens) (Q2M2I8 whole entry, looked up): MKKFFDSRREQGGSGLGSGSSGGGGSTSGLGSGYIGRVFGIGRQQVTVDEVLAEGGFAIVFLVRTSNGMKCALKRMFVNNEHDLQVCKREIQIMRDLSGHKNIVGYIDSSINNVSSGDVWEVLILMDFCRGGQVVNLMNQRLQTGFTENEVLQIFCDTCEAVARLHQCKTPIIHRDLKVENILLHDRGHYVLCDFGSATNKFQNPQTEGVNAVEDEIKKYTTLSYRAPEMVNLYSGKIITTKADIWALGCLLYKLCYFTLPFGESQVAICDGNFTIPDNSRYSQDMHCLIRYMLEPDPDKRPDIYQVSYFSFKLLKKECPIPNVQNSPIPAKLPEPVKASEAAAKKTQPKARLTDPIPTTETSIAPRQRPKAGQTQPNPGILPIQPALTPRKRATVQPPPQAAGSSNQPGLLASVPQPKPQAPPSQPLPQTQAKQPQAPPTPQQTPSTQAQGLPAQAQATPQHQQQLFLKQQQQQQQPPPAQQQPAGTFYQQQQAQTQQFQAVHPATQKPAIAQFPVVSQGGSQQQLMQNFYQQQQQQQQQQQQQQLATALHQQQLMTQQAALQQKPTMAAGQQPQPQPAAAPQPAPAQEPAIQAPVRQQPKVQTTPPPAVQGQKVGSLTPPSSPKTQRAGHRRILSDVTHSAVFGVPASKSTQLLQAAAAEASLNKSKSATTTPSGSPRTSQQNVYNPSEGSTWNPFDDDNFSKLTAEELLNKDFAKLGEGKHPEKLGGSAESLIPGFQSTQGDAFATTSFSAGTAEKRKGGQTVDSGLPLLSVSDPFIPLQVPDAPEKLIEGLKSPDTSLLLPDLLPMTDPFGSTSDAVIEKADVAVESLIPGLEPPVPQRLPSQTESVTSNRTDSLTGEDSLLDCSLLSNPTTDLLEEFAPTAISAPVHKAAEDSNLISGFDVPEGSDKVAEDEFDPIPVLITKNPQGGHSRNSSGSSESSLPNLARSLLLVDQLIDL
# [24] = target: Dual specificity mitogen-activated protein kinase kinase 4 (Homo sapiens) (UniProt P45985); conditions: Compound concentration 1000.0 nM
# [25] = target: Vascular endothelial growth factor receptor 3 (Homo sapiens) (UniProt P35916); conditions: Compound concentration 1000.0 nM
# [26] = target: STE20-like serine/threonine-protein kinase (Homo sapiens) (UniProt Q9H2G2); conditions: Compound concentration 1000.0 nM
# [27] = tested on: Receptor-type tyrosine-protein kinase FLT3 (Homo sapiens), P36888 [N841I]; conditions: Compound concentration 1000.0 nM
# [28] = target: Serine/threonine-protein kinase PLK2 (Homo sapiens) (UniProt Q9NYY3); conditions: Compound concentration 1000.0 nM
# [29] = target: Receptor-interacting serine/threonine-protein kinase 4 (Homo sapiens) (UniProt P57078); conditions: Compound concentration 1000.0 nM
# [30] = tested on: Receptor-type tyrosine-protein kinase FLT3 (Homo sapiens), P36888 [D835V]; conditions: Compound concentration 1000.0 nM
# [31] = target: Casein kinase II subunit alpha' (Homo sapiens) (UniProt P19784); conditions: Compound concentration 1000.0 nM
# [32] = target: Rho-associated protein kinase 2 (Homo sapiens) (UniProt O75116); conditions: Compound concentration 1000.0 nM
# [33] = target: G protein-coupled receptor kinase 4 (Homo sapiens) (UniProt P32298); conditions: Compound concentration 1000.0 nM
# [34] = target: Maternal embryonic leucine zipper kinase (Homo sapiens) (UniProt Q14680); conditions: Compound concentration 1000.0 nM
# Sequence of Maternal embryonic leucine zipper kinase (Homo sapiens) (Q14680 whole entry, looked up): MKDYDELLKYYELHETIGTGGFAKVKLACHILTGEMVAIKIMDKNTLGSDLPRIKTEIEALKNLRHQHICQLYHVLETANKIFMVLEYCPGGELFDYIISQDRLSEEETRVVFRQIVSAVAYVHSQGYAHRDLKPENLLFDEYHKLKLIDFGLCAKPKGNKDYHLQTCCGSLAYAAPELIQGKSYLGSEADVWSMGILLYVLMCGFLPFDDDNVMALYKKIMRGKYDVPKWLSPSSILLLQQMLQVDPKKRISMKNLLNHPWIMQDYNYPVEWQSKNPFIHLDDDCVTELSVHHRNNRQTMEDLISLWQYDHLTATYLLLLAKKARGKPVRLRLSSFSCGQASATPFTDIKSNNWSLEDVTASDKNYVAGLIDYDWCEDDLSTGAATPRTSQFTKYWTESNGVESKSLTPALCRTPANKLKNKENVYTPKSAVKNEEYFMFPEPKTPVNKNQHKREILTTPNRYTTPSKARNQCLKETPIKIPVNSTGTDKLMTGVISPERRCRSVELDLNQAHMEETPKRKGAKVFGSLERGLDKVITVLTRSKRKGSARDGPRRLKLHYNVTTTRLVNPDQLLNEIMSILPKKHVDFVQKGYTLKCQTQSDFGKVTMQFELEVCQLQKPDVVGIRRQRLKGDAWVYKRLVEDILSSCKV
# [35] = target: Activin receptor type-1-like (Homo sapiens) (UniProt P37023); conditions: Compound concentration 1000.0 nM
# [36] = target: Sodium-dependent dopamine transporter (Homo sapiens) (UniProt Q01959); conditions: Compound concentration 10.0 uM
# [37] = target: Serine/threonine-protein kinase PAK 1 (Homo sapiens) (UniProt Q13153); conditions: Compound concentration 1000.0 nM
# [38] = target: Serine/threonine-protein kinase MRCK gamma (Homo sapiens) (UniProt Q6DT37); conditions: Compound concentration 1000.0 nM
# [39] = target: Serine/threonine-protein kinase Chk2 (Homo sapiens) (UniProt O96017); conditions: Compound concentration 1000.0 nM
# [40] = target: Mitogen-activated protein kinase kinase kinase kinase 4 (Homo sapiens) (UniProt O95819); conditions: Compound concentration 1000.0 nM
# [41] = target: Activin receptor type-2A (Homo sapiens) (UniProt P27037); conditions: Compound concentration 1000.0 nM
# Sequence of Activin receptor type-2A (Homo sapiens) (P27037 whole entry): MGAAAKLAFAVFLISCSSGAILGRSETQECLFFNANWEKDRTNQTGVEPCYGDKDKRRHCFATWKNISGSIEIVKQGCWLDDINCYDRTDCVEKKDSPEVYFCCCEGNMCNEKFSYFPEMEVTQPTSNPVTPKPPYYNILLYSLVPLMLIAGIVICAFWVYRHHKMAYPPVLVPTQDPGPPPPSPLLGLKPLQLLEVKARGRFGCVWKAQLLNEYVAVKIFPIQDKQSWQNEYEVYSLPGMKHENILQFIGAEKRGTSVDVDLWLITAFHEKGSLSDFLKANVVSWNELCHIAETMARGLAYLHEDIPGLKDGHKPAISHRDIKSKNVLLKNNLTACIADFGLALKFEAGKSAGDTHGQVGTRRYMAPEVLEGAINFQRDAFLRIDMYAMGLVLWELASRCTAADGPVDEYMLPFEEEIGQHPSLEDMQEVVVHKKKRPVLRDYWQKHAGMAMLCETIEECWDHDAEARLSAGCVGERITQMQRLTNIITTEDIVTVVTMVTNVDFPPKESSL
# [42] = target: Serine/threonine-protein kinase haspin (Homo sapiens) (UniProt Q8TF76); conditions: Compound concentration 1000.0 nM
# [43] = target: Calcium/calmodulin-dependent protein kinase type 1B (Homo sapiens) (UniProt Q6P2M8); conditions: Compound concentration 1000.0 nM
# [44] = target: Serine/threonine-protein kinase Nek1 (Homo sapiens) (UniProt Q96PY6); conditions: Compound concentration 1000.0 nM
# [45] = tested on: Tyrosine-protein kinase ABL1 (Homo sapiens), P00519 [Q252H]; conditions: Compound concentration 1000.0 nM
smiles,measurement,setting,value
N#Cc1ccc(Nc2ccc3[nH]c(=O)[nH]c3c2)c(Cl)c1,residual activity,[1],100%
same,residual activity,[2],90%
same,residual activity,[3],100%
same,residual activity,[4],100%
same,residual activity,[5],94%
same,residual activity,[6],91%
same,residual activity,[7],100%
same,inhibition,[8],2.26%
same,residual activity,[9],70%
same,residual activity,[10],92%
same,residual activity,[11],100%
same,residual activity,[12],100%
same,residual activity,[13],100%
same,residual activity,[14],97%
same,residual activity,[15],100%
same,residual activity,[16],100%
same,residual activity,[17],100%
same,residual activity,[18],100%
same,residual activity,[19],100%
same,residual activity,[20],100%
same,inhibition,[21],4.43%
same,residual activity,[22],100%
same,residual activity,[23],100%
same,residual activity,[24],100%
same,residual activity,[25],100%
same,residual activity,[26],100%
same,residual activity,[27],77%
same,residual activity,[28],86%
same,residual activity,[29],89%
same,residual activity,[30],100%
same,residual activity,[31],83%
same,residual activity,[32],100%
same,residual activity,[33],100%
same,residual activity,[34],95%
same,residual activity,[35],100%
same,inhibition,[36],14%
same,residual activity,[37],85%
same,residual activity,[38],100%
same,residual activity,[39],100%
same,residual activity,[40],77%
same,residual activity,[41],70%
same,residual activity,[42],100%
same,residual activity,[43],78%
same,residual activity,[44],55%
same,residual activity,[45],89%
O=C1CCc2cc(Nc3cc(OC4CCOCC4)c([N+](=O)[O-])cc3Cl)ccc2N1,residual activity,[1],100%
same,residual activity,[2],96%
same,residual activity,[3],100%
same,residual activity,[4],100%
same,residual activity,[5],91%
same,residual activity,[6],83%
same,residual activity,[7],100%
same,inhibition,[8],20.6%
same,residual activity,[9],96%
same,residual activity,[10],78%
same,residual activity,[11],100%
same,residual activity,[12],100%
same,residual activity,[13],92%
same,residual activity,[14],99%
same,residual activity,[15],81%
same,residual activity,[16],100%
same,residual activity,[17],100%
same,residual activity,[18],89%
same,residual activity,[19],96%
same,residual activity,[20],100%
same,inhibition,[21],11.6%
same,residual activity,[22],100%
same,residual activity,[23],100%
same,residual activity,[24],100%
same,residual activity,[25],97%
same,residual activity,[26],100%
same,residual activity,[27],100%
same,residual activity,[28],92%
same,residual activity,[29],100%
same,residual activity,[30],70%
same,residual activity,[31],76%
same,residual activity,[32],100%
same,residual activity,[33],100%
same,residual activity,[34],77%
same,residual activity,[35],93%
same,inhibition,[36],13.6%
same,residual activity,[37],88%
same,residual activity,[38],99%
same,residual activity,[39],69%
same,residual activity,[40],100%
same,residual activity,[41],81%
same,residual activity,[42],100%
same,residual activity,[43],68%
same,residual activity,[44],40%
same,residual activity,[45],79%
